System: patients with indolent forms of mastocytosis with handicap, D816V absent in at least one infiltrated organ
Assay: Example 1 phase 2a study, response assessment
Format: in vivo, human
Design: Hamilton rating Δ Mean ± SD / QLQ-C30 Symptom Δ Mean ± SD / QLQ-C30 Global Health Δ Mean ± SD / AFIRMM Δ Mean ± SD / Hamilton rating ΔMean ± SD / QLQC30 Symptom ΔMean ± SD / QLQC30 Global Health ΔMean ± SD / AFIRMM ΔMean ± SD: scale not given here
Method: Eligible patients were aged >18 years, had previously documented indolent systemic, smoldering systemic or cutaneous mastocytosis as per the WHO classification with associated disability as the result of mast cell released mediators and had not responded to usual symptomatic treatments for more the 6 months. […] A single occurrence of this criterion was deemed sufficient for inclusion and so no systematic examination of multiple organs was carried out specifically for this study.
Patients were classified as having a handicap if after appropriate symptomatic treatments they fulfilled at least one of the following a priori criteria: number of flushes/day ≥1; pruritus score ≥6; number of stools ≥4/day; micturition frequency ≥8/day; Hamilton rating for depression ≥10; or EORTC quality-of-life questionnaire (QLQ-C30) symptom score, functional score, and global health status of >0. Patients were excluded if they experienced inadequate organ function defined via blood test levels, or an Eastern Cooperative Oncology Group performance status >2. Other exclusion criteria included: life expectancy <6 months, severe or uncontrolled medical disease, and patients who were pregnant or nursing.
In accordance to the AFIRMM study (Hermine O, et al., 2008, PLoS ONE. 3:e2266), evaluation of treatment response was based upon the change of clinical symptoms associated with a patient's handicaps at week 12 (W12) relative to baseline. Primary endpoints were daily frequency of flushes; pruritus score; and Hamilton rating for depression, as well as, daily stool and micturition frequencies; QLQ-C30 global health status, functional, and symptom scores. […] For those patients entering the extension phase, assessments were performed every 4 weeks for the first 3 months of extension, and every 12 weeks thereafter. Secondary endpoints included the W12 assessment of AFIRMM score (a validated questionnaire assessing the self-perceived severity of mastocytosis) (Hermine O, et al., 2008, PLoS ONE. 3:e2266); overall patient assessment (OPA) score; tryptase levels; and change in organ mast cell infiltration. Determination of D816V mutation and serum tryptase levels was conducted following procedures described previously (Hermine O, et al., 2008, PLoS ONE. 3:e2266). Overall clinical response analysis at W12 defined a responder as having an improvement of ≥50% in baseline handicap of a key response endpoint (Hamilton rating, flushes, or pruritus) without deterioration or emergence of handicap. Any patient with deterioration of ≥50% in any handicap, and/or with emergence of a new handicap with an increase of ≥50% from baseline was considered as worsening. Any patient who discontinued the study before W12 was considered a non responder. Discrimination between dose regimens was investigated by analyses of the ‘time to first response’, according to the initial dosage, and ‘dose at time of first response’ in key response endpoints.
Response analysis was performed on subgroups of the ITT population according to a patient's handicap at baseline and for whom response was evaluated at W12; referred to hereafter as the handicap-related population. No data imputation was implemented. The per protocol (PP) population was defined as a subset of a given handicap-related population, which in addition had presented no major protocol deviations. Summary response data are presented using descriptive statistics with mean improvement compared to baseline in each handicap cohort, regardless of disease classification. The appropriate Wilcoxon or Fisher tests were used for group comparison of baseline disease, demographic characteristics between dose level groups and response relative to baseline. Subpopulation analysis was also conducted according to initial c-Kit status.

[1] = W12, Group 1 (no confirmed D816V)
[2] = W12, Group 2 (mixed c-Kit status)
[3] = W12, handicap-related population

Cc1ccc(NC(=O)c2ccc(CN3CCN(C)CC3)cc2)cc1Nc1nc(-c2cccnc2)cs1 [masitinib, 4-(4-methylpiperazin-1-ylmethyl)-N-[4-methyl-3-(4-pyridin-3ylthiazol-2-ylamino)phenyl]benzamide]
skin mast cell infiltration: good partial response (≥50% reduction) (1/14 evaluable patients): 7% | OPA: worsening of health status (1/20 patient at one time point): 5% | skin mast cell infiltration: partial response (1 to 49% reduction) (6/14 evaluable patients): 43% | skin mast cell infiltration: no change (7/14 evaluable patients): 50% | OPA score improvement of at least one point (9/20 patients): 45% | first response events at lower dose level of 4.5 mg/kg/day (48/79 events): 60% | first response events occurring at dose ≤6 mg/kg/day (76/79 events): 96% | first response events: AFIRMM score (Total, all doses): 10 | first response events: Flush (Total, all doses): 17 | first response events: Hamilton (Total, all doses): 10 | first response events: Micturition (Total, all doses): 1 | first response events: OPA score (Total, all doses): 7 | first response events: Pruritus (Total, all doses): 11 | first response events: QLQ30 Functional (Total, all doses): 5 | first response events: QLQ30 Global (Total, all doses): 6 | first response events: QLQ30 Symptom (Total, all doses): 5 | first response events: Stool (Total, all doses): 7 | first response events: Total events (Total, all doses): 79 | QLQ-C30 functional score improvement (W12): 39%±81 | QLQ-C30 global health status improvement (W12): 51%±108 | QLQ-C30 symptom score improvement (W12): 2.5%±69 | clinical response rate: Hamilton rating (W12): 50% | clinical response rate: flushes (W12): 60% | clinical response rate: pruritus (W12): 25% | OPA: impaired health status at baseline reporting none or minimal impairment (W12, 3/20 evaluable patients): 15% | AFIRMM Δ Mean ± SD (W12, All): −61.5 ± 49.6 | Flushes per day Δ Mean ± SD (W12, All): −1.7 ± 1.5 | Hamilton rating Δ Mean ± SD (W12, All): −5.1 ± 4.4 | Micturitions per day Δ Mean ± SD (W12, All): −3.1 ± 3.7 | Pruritus Δ Mean ± SD (W12, All): −3.0 ± 3.4 | QLQ-C30 Functional Δ Mean ± SD (W12, All): 8.7 ± 18.8 | QLQ-C30 Global Health Δ Mean ± SD (W12, All): 12.5 ± 24.7 | QLQ-C30 Symptom Δ Mean ± SD (W12, All): −6.1 ± 13.6 | Stools per day Δ Mean ± SD (W12, All): −1.9 ± 3.6 | AFIRMM Δ Mean ± SD [1]: −63.5 ± 52.9 | Flushes per day Δ Mean ± SD [1]: −2.0 ± 1.6 | Hamilton rating Δ Mean ± SD [1]: −4.6 ± 4.3 | Micturitions per day Δ Mean ± SD [1]: −3.0 ± 2.8 | Pruritus Δ Mean ± SD [1]: −3.5 ± 3.6 | QLQ-C30 Functional Δ Mean ± SD [1]: 8.7 ± 21.0 | QLQ-C30 Global Health Δ Mean ± SD [1]: 14.1 ± 27.0 | QLQ-C30 Symptom Δ Mean ± SD [1]: −5.4 ± 14.7 | Stools per day Δ Mean ± SD [1]: −2.0 ± 4.0 | AFIRMM Δ Mean ± SD [2]: −53.5 ± 38.5 | Flushes per day Δ Mean ± SD [2]: −0.8 ± 0.5 | Hamilton rating Δ Mean ± SD [2]: −10.0 | Micturitions per day Δ Mean ± SD [2]: −3.5 ± 7.8 | Pruritus Δ Mean ± SD [2]: −1.0 ± 2.2 | QLQ-C30 Functional Δ Mean ± SD [2]: 8.6 ± 4.8 | QLQ-C30 Global Health Δ Mean ± SD [2]: 6.3 ± 12.5 | QLQ-C30 Symptom Δ Mean ± SD [2]: −9.5 ± 6.2 | Stools per day Δ Mean ± SD [2]: −1.5 ± 2.1 | overall clinical response (W12, ITT): 14/25 | tryptase level, mean reduction (W12, PP patients with elevated tryptase (>15 ng/mL) at baseline (N=5)): 23% | micturition frequency improvement (W12, PP population): 39%±14 | stool frequency improvement (W12, PP population): 44%±63 | AFIRMM global score improvement (W12, evaluable patients (N=20)): 40%±27 | micturition frequency improvement [3]: 23%±30 | stool frequency improvement [3]: 29%±58 | bone marrow mast cell infiltration (W12, one patient of 15 evaluable, 7% at baseline): 1% | first response events: Cumulative Frequency (at 1.5 mg/kg/day): 0% | first response events: Total events (at 1.5 mg/kg/day): 0 | first response events: AFIRMM score (at 3.0 mg/kg/day): 4 | first response events: Cumulative Frequency (at 3.0 mg/kg/day): 46% | first response events: Flush (at 3.0 mg/kg/day): 9 | first response events: Hamilton (at 3.0 mg/kg/day): 4 | first response events: OPA score (at 3.0 mg/kg/day): 2 | first response events: Pruritus (at 3.0 mg/kg/day): 5 | first response events: QLQ30 Functional (at 3.0 mg/kg/day): 3 | first response events: QLQ30 Global (at 3.0 mg/kg/day): 2 | first response events: QLQ30 Symptom (at 3.0 mg/kg/day): 2 | first response events: Stool (at 3.0 mg/kg/day): 5 | first response events: Total events (at 3.0 mg/kg/day): 36 | first response events: AFIRMM score (at 4.5 mg/kg/day): 1 | first response events: Cumulative Frequency (at 4.5 mg/kg/day): 61% | first response events: Flush (at 4.5 mg/kg/day): 3 | first response events: Hamilton (at 4.5 mg/kg/day): 2 | first response events: Pruritus (at 4.5 mg/kg/day): 2 | first response events: QLQ30 Functional (at 4.5 mg/kg/day): 1 | first response events: QLQ30 Global (at 4.5 mg/kg/day): 2 | first response events: QLQ30 Symptom (at 4.5 mg/kg/day): 1 | first response events: Total events (at 4.5 mg/kg/day): 12

From patent US10045978B2 (AB SCIENCE, priority 2010, dated 2018)
